Measured values published in patent publication US11324717B2, “Microbial carotenoids affecting gut microbial composition” (Microbial Research Management Health NV, priority 2016, dated 2022).

Key:
gut microbiota = assay: Gut microbiome composition (fecal DGGE cluster analysis) in rats on high-fat diet; type: in vivo, Sprague-Dawley rats; conditions: daily oral gavage in peanut oil for 8 weeks, carotenoids 10-50 pg/d, lutein 25 μg/d, vs HF controls
Description: To evaluate the effect of carotenoids from PD01 on gut microbiome composition in vivo, male Sprague-Dawley rats of 90 days of age were daily dosed for 8 weeks with carotenoids from PD01, either as carotenoid extract or as carotenoids contained in spores or vegetative cells. The experiment consisted of administration of a high-fat (HF) diet to the animals, which mimics a standardized western diet and is associated with the development of metabolic syndrome within 8 weeks of administration. In addition to a HF control group, separate groups of animals received the HF diet in combination with one of the carotenoid formulations from PD01. To do this, the carotenoid formulations were suspended in peanut oil and given by oral gavage to the rats in addition to the HF diet. The corresponding daily dose of carotenoids was in the range of […]. A control group receiving a standard low-fat (LF) diet was included to allow assessment of the specific effect of the HF diet on the gut microbiome composition. Additionally, one extra HF group was included, receiving the plant-derived carotenoid lutein, in the same amount as the bacterial carotenoids (i.e. 25 μg/d). This allows comparison of the effect of bacterial vs. plant-derived carotenoids on the gut microbiome composition. To monitor the effects of the different formulations on the gut microbiota, DGGE profiles were prepared. […]

[1] = test system: Caco-2/THP1XB co-cultures; assay: Gut barrier function: TEER in Caco-2/THP1XB co-cultures (transwell); type: cell-based; conditions: 18 h after treatment of Caco-2/THP1XB co-cultures
Description: The effect on the host of the carotenoids from PD01 (derived from either vegetative cells or spores) on gut barrier function, was studied in Caco-2/THP1XB co-cultures, according to methods described in Possemiers et al. (2013, J Agric Food Chem 61). Endpoint of the measurement was a change from control in the transepithelial electrical resistance (TEER) in a transwell setup.

SMILES | gut microbiome composition (DGGE cluster analysis of fecal samples) (gut microbiota) | transepithelial electrical resistance (TEER), change from control [1]
CC1=C[C@H](O)CC(C)(C)[C@H]1/C=C/C(C)=C/C=C/C(C)=C/C=C/C=C(C)/C=C/C=C(C)/C=C/C1=C(C)C[C@@H](O)CC1(C)C [lutein] | clustered together with those of the HF controls | –
Cc1c(C)c2c(c(C)c1O)CC[C@@](C)(CCC[C@H](C)CCC[C@H](C)CCCC(C)C)O2 [α-tocopherol] | – | did not induce protection
